# Assay results from US20180148418A1, “AMIDO-SUBSTITUTED CYCLOHEXANE DERIVATIVES” (Bayer Pharma Aktiengesellschaft, priority 2015, published 2018).
# Columns and labels:
# [1] = test system: wildtype Wnt signaling cascade; assay: HEK293 TOP assay (Super TopFlash luciferase reporter, Wnt-3a stimulated); assay type: cell-based; conditions: Homo sapiens, HEK293, 16 h, HEK293 TOP reporter cells, Wnt3a at EC50, 16 hours
# Source text: 7.1 Measurement of the Inhibitory Activity of Selected Compounds on the Wildtype Wnt Signaling Cascade: HEK293 TOP/FOP Assay
# In order to discover and characterize small molecules which inhibit the wildtype Wnt pathway, a cellular reporter assay was employed. The corresponding assay cell was generated by transfection of the mammalian cell line HEK293 (ATCC, #CRL-1573) with the Super TopFlash vector (Morin, Science 275, 1997, 1787-1790; Molenaar et al., Cell 86 (3), 1996, 391-399). The HEK293 cell line is cultivated at 37° C. and 5% CO2 in DMEM (Life Technologies, #41965-039), supplemented with 2 mM glutamine, 20 mM HEPES, 1.4 mM pyruvate, 0.15% Na-bicarbonate and 10% foetal bovine serum (GIBCO, #10270). Stable transfectants were generated by selection with 300 μg/ml Hygromycin.
# (§1) In preparation of the assay, the two cell lines were plated 24 h before beginning the test at 10000 cells per well in a 384 micro titre plate (MTP) in 30 μl growth medium. […] The recombinant human Wnt-3a was thereby applied between 2500 and 5 ng/ml in two-fold dilution steps.
# (§2) Selective inhibitory activity for small molecules on the wildtype Wnt pathway was determined after parallel incubation of both (TOP and FOP) HEK293 reporter cell lines with a compound dilution series from 50 μM to 15 nM in steps of 3.16-fold dilutions in CAFTY buffer (130 mM sodium chloride, 5 mM potassium chloride, 20 mM HEPES, 1 mM magnesium chloride, 5 mM sodium bicarbonate, pH 7.4) containing 2 mM Ca^2+ and 0.01% BSA.
# (§3) The compounds were thereby serially prediluted in 100% DMSO and thereafter 50 fold into the CAFTY compound dilution buffer (described above).
# [2] = target: T1, TNKS2 (Homo sapiens, UniProt Q9H2K2); assay: TNKS2 Assay B (auto-parsylation, [3H]-NAD+ SPA); assay type: biochemical; conditions: 6 nM TNKS2, auto-parsylation, over night at room temperature
# T1 construct: purchased BPS Bioscience, San Diego, USA 80572 (TNKS2 Histone Ribosylation Assay Kit)
# T1 sequence (Q9H2K2 1-1166): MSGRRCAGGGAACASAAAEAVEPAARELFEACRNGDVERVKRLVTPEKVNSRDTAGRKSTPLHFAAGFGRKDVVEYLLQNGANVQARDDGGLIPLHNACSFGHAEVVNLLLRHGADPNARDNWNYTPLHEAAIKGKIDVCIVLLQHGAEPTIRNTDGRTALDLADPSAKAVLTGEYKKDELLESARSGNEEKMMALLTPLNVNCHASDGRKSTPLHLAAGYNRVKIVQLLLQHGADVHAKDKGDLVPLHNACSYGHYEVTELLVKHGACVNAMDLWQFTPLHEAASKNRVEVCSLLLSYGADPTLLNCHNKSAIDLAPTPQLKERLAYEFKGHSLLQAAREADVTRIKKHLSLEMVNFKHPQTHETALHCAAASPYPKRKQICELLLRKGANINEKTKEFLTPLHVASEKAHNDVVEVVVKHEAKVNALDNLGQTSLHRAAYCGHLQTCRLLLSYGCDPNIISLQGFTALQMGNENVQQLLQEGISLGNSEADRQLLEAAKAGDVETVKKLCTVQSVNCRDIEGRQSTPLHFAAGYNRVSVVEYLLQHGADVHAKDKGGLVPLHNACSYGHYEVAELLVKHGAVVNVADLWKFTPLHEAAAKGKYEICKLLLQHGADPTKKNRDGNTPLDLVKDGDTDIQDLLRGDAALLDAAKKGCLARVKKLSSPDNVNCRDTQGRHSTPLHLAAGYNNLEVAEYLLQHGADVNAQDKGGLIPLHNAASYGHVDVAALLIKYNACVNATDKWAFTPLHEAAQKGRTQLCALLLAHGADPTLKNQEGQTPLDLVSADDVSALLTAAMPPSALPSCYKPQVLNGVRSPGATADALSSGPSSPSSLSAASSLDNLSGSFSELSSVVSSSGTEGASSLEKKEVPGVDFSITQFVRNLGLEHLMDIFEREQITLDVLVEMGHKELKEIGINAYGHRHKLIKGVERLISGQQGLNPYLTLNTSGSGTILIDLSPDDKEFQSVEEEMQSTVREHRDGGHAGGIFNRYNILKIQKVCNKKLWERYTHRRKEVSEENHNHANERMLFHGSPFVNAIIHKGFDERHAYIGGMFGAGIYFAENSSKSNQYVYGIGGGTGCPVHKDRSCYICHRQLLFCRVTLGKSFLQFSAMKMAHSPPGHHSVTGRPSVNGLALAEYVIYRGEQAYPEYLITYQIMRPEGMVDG
# Method: The potency of selected compounds according to the invention was assessed applying a modified in vitro inhibition assay. Here, the TNKS2 catalyzed NAD^+-dependent ribosylation of the enzyme itself (auto-parsylation) was detected using [^3H]-NAD^+ as substrate and applying the scintillation proximity assay (SPA) method to detect tritium-labeled, parsylated TNKS2. The intensity of the readout signal is proportional to the incorporated [^3H]-NAD^+. Inhibition of TNKS2 leads to a decreased incorporation of [^3H]-NAD^+ and consequently to a lower readout signal intensity. The concentration of a test compound which inhibits the enzyme activity by 50% (corresponds to half of the normed readout signal intensity) is reported as IC50.
# Protocol Auto-Parsylation Assay
# The assay was conducted in a 96 well MTP format with the identical TNKS2 enzyme sample and NAD^+ sample as in the histone ribosylation assay with the following modifications: TNKS2 enzyme sample was diluted with a modified assay buffer (50 mM MES pH 7.0, 1 mM DTT, 0.01% Triton X-100) to a final concentration of 6 nM TNKS2 and 10×NAD^+ solution was diluted with the modified assay buffer (s. above) to a final 0.445×NAD^+ solution doped with 100 Bq/μl [^3H]-NAD^+[Catalog #NET443H050UC, Perkin Elmer, Waltham, Mass., USA]. Substrate solution (10 μl) was incubated with different test compound concentrations (2.5 μl in 10% DMSO in modified assay buffer) or control (2.5 μl 10% DMSO in modified assay buffer only) and enzyme (10 μl) over night at room temperature. Incorporated tritium was measured after addition of 50 ul SPA beads (1 mg/ml) [Catalog #RPNQ0095 20 mg/ml, Perkin Elmer, Waltham, Mass., USA; diluted 1:10 with Dulbecco's phosphate buffered saline, PBS Catalog #D8537, Sigma-Aldrich, Steinheim, Germany] and detection of the photon emission with a beta count plate reader [Wallac MicroBeta®, Perkin Elmer, Waltham, Mass., USA].
# [3] = test system: HEK293 cells cotransfected with the FOP control vector; assay: HEK293 FOP assay (control reporter with non-functional TCF elements); assay type: cell-based; conditions: Homo sapiens, 16 hours
# Method: In a parallel approach, HEK293 cells were cotransfected with the FOP control vector and pcDNA3. The FOP vector is identical to the TOP construct, but it contains instead of functional TCF elements a randomized, non-functional sequence. For this transfection a stable transfected cell line was generated as well, based on selection with Geneticin (1 mg/ml).
# as §1, §2, §3
IC50 [1],IC50 [2],Structure (SMILES),IC50 [3]
34 nM,150 nM,"CCN(c1ccccc1Cl)C(=O)[C@H]1CC[C@H](NC(=O)c2[nH]cnc2C(=O)NC)CC1 [Example 158, N^5-{trans-4-[(2-chlorophenyl)(ethyl)carbamoyl]cyclohexyl}-N^4-methyl-1H-imidazole-4,5-dicarboxamide]",≥ 50000 nM
14 nM,130 nM,CNC(=O)c1nc[nH]c1C(=O)N[C@H]1CC[C@@]2(CCCN(c3ccc(F)cc3Cl)C2=O)CC1 [Example 159],≥ 50000 nM
79 nM,240 nM,"CNC(=O)c1nc[nH]c1C(=O)N[C@H]1CC[C@H](C(=O)Nc2c(Cl)cc(F)cc2C#N)CC1 [Example 174, N^5-{trans-4-[(2-chloro-6-cyano-4-fluorophenyl)carbamoyl]cyclohexyl}-N^4-methyl-1H-imidazole-4,5-dicarboxamide]",≥ 50000 nM
0.68 nM,2.7 nM,"COC1CN(C(=O)c2nc[nH]c2C(=O)N[C@H]2CC[C@@]3(CCN(c4ccc(F)cc4Cl)C3=O)CC2)C1 [Example 188, N-[(trans)-2-(2-chloro-4-fluorophenyl)-1-oxo-2-azaspiro[4.5]dec-8-yl]-4-[(3-methoxyazetidin-1-yl)carbonyl]-1H-imidazole-5-carboxamide]",≥ 50000 nM
0.3 nM,5.6 nM,"O=C(N[C@H]1CC[C@@]2(CCN(c3ccc(F)cc3Cl)C2=O)CC1)c1[nH]cnc1C(=O)N1CC(F)(F)C1 [Example 189, N-[(trans)-2-(2-chloro-4-fluorophenyl)-1-oxo-2-azaspiro[4.5]dec-8-yl]-4-[(3,3-difluoroazetidin-1-yl)carbonyl]-1H-imidazole-5-carboxamide]",9800 nM
0.06 nM,2.8 nM,"O=C(N[C@H]1CC[C@@]2(CCN(c3ccc(F)cc3Cl)C2=O)CC1)c1[nH]cnc1C(=O)N1CC(C(F)F)C1 [Example 190, N-[(trans)-2-(2-chloro-4-fluorophenyl)-1-oxo-2-azaspiro[4.5]dec-8-yl]-4-{[3-(difluoromethyl)azetidin-1-yl]carbonyl}-1H-imidazole-5-carboxamide]",12000 nM
0.21 nM,5.3 nM,"O=C(N[C@H]1CC[C@@]2(CCN(c3ccc(F)cc3Cl)C2=O)CC1)c1[nH]cnc1C(=O)N1CC(O)C1 [Example 192, N-[(trans)-2-(2-chloro-4-fluorophenyl)-1-oxo-2-azaspiro[4.5]dec-8-yl]-4-[(3-hydroxyazetidin-1-yl)carbonyl]-1H-imidazole-5-carboxamide]",≥ 50000 nM
0.6 nM,5 nM,"O=C(N[C@H]1CC[C@@]2(CCN(c3ccc(F)cc3Cl)C2=O)CC1)c1[nH]cnc1C(=O)N1CC(OC(F)F)C1 [Example 193, N-[(trans)-2-(2-chloro-4-fluorophenyl)-1-oxo-2-azaspiro[4.5]dec-8-yl]-4-{[3-(difluoromethoxy)azetidin-1-yl]carbonyl}-1H-imidazole-5-carboxamide]",16000 nM
1.5 nM,4.8 nM,"O=C(N[C@H]1CC[C@@]2(CCN(c3ccc(F)cc3Cl)C2=O)CC1)c1[nH]cnc1C(=O)N1CC2(COC2)C1 [Example 194, N-[(trans)-2-(2-chloro-4-fluorophenyl)-1-oxo-2-azaspiro[4.5]dec-8-yl]-4-(2-oxa-6-azaspiro[3.3]hept-6-ylcarbonyl)-1H-imidazole-5-carboxamide]",≥ 50000 nM
48 nM,160 nM,"Cc1cc(C2CC2)n2ncc(C(=O)N[C@H]3CC[C@H](C(=O)Nc4ccc(F)cc4Cl)CC3)c2n1 [Example 204, N-{trans-4-[(2-chloro-4-fluorophenyl)carbamoyl]cyclohexyl}-7-cyclopropyl-5-methylpyrazolo[1,5-a]pyrimidine-3-carboxamide]",≥ 50000 nM
3500 nM,> 10000 nM,"Cc1cc(C)n2ncc(C(=O)N[C@H]3CC[C@]4(CCN(c5ccc(F)cc5Cl)C4=O)CC3)c2n1 [Example 207, N-[(cis)-2-(2-chloro-4-fluorophenyl)-1-oxo-2-azaspiro[4.5]dec-8-yl]-5,7-dimethylpyrazolo[1,5-a]pyrimidine-3-carboxamide]",≥ 50000 nM
5.6 nM,7.5 nM,"COCc1cc(C)nc2c(C(=O)N[C@H]3CC[C@@]4(CCN(c5ccc(F)cc5Cl)C4=O)CC3)cnn12 [Example 219, N-[(trans)-2-(2-chloro-4-fluorophenyl)-1-oxo-2-azaspiro[4.5]dec-8-yl]-7-(methoxymethyl)-5-methylpyrazolo[1,5-a]pyrimidine-3-carboxamide]",≥ 500 nM
2.6 nM,10 nM,"COCc1cc(C)n2ncc(C(=O)N[C@H]3CC[C@@]4(CCN(c5ccc(F)cc5Cl)C4=O)CC3)c2n1 [Example 220, N-[(trans)-2-(2-chloro-4-fluorophenyl)-1-oxo-2-azaspiro[4.5]dec-8-yl]-5-(methoxymethyl)-7-methylpyrazolo[1,5-a]pyrimidine-3-carboxamide]",38000 nM
270 nM,1200 nM,"O=C(N[C@H]1CC[C@@]2(CCN(c3ccc(F)cc3Cl)C2=O)CC1)c1cnc2ccccn12 [Example 223, N-[(trans)-2-(2-chloro-4-fluorophenyl)-1-oxo-2-azaspiro[4.5]dec-8-yl]imidazo[1,2-a]pyridine-3-carboxamide]",≥ 50000 nM
